# Assays:
# [1] = Solubility test (UV-vis calibration curves, maximum solubility); settings: for solubility: organic solvent or mixture, thermodynamic from solid
# [2] = Cyclic voltammetry (CV) in three-electrode cells; assay type: physicochemical; settings: for Peak to peak potential difference (ΔEp) / Ratio of anodic peak current (Ipa) to cathodic peak current (Ipc) (Ipa/Ipc) @50 mV s^−1: 1st event (or only value)
# Method: All electrochemical examinations were carried out using a Biologic VMP3 electrochemical workstation in an Ar-filled glove box (MOTek, negligible O2 and H2O, tested by the ketyl solution).
# Cyclic voltammetry (CV) was conducted in three-electrode cells comprised of glassy carbon (GC; diameter (d)=3 mm) as the working electrode (WE), a platinum wire as the counter electrode (CE), and a leak-free Ag/AgCl as the reference electrode (RE). The GC electrodes were polished using alumina slurry before testing (ALS Co., Ltd).
# After CV analysis, ferrocene (Fc, ferrocene, 98%, Sigma-Aldrich) was added to the cell to measure its redox potential, and the measured sample potential was converted to the Fc/Fc^+.
# [3] = after 100 cycles (in parentheses)
# [4] = initial, 10 mM in 0.1 M TBABF4/MeCN
# [5] = 1st redox event (or the only value given), 10 mM in 0.1 M TBABF4/MeCN
# [6] = 2nd redox event, 10 mM in 0.1 M TBABF4/MeCN
# [7] = MeCN, Solubility (M) in MeCN, in MeCN
Solubility (M) MeCN ([1]; in MeCN) [M],Solubility (M) in MeCN ([1]; in MeCN) [M],maximum solubility in MeCN ([1]; in MeCN) [mM],"Peak to peak potential difference (ΔEp) [2, 3]","Ratio of anodic peak current (Ipa) to cathodic peak current (Ipc) (Ipa/Ipc) @50 mV s^−1 [2, 3]","Peak to peak potential difference (ΔEp) [2, 4]","Ratio of anodic peak current (Ipa) to cathodic peak current (Ipc) (Ipa/Ipc) @50 mV s^−1 [2, 4]","Formal potential (E^o′) [2, 5]","Formal potential (E^o′) [2, 6]","solubility [1, 7] [M]",SMILES,further results
,,,102 mV,0.91,99 mV,0.93,1st = −1.24 V vs. Fc/Fc^+,2nd = −1.96 V vs. Fc/Fc^+,0.07,"CCCCCCCCCC[n+]1ccc(-c2nc3ccccc3s2)cc1 [Dec-BTP^+·BF4^−, 4-(benzo[d]thiazol-2-yl)-1-decylpyridin-1-ium tetrafluoroborate]",potential shift after CV cycles ([2]; FIG. 7): positive (+) potential shift
0.25,0.25,250,,,,,,,,"C[N+](C)(C)CCC[n+]1ccc(-c2nc3ccccc3s2)cc1 [TMAP-BTP^2+·2PF6^−, 4-(benzo[d]thiazol-2-yl)-1-(3-(trimethylammonio)propyl)pyridin-1-ium hexafluorophosphate]","solubility ([1]; 0.5 M TBAPF6 in MeCN, maximum solubility in electrolyte solution, 0.5 M TBAPF6/MeCN): 0.026 M"
,,,81 mV,0.88,89 mV,0.89,1st = −1.33 V vs. Fc/Fc^+,2nd = −1.94 V vs. Fc/Fc^+,,"Cc1cc(-c2nc3ccccc3s2)cc(C)[n+]1C [DiMe-BTP^+·BF4^−, 4-(benzo[d]thiazol-2-yl)-1,2,6-trimethylpyridin-1-ium tetrafluoroborate]","cyclability in the CV profile ([2]; 100 CV cycles, FIGS. 6 and 7): excellent cyclability"

# Further lines, the compound ahead of its results:
SMILES,Solubility (M) MeCN ([1]; in MeCN) [M],Solubility (M) in MeCN ([1]; in MeCN) [M],maximum solubility in MeCN ([1]; in MeCN) [mM],"Peak to peak potential difference (ΔEp) [2, 3]","Ratio of anodic peak current (Ipa) to cathodic peak current (Ipc) (Ipa/Ipc) @50 mV s^−1 [2, 3]","Peak to peak potential difference (ΔEp) [2, 4]","Ratio of anodic peak current (Ipa) to cathodic peak current (Ipc) (Ipa/Ipc) @50 mV s^−1 [2, 4]","Formal potential (E^o′) [2, 5]","Formal potential (E^o′) [2, 6]","solubility [1, 7] [M]",further results
"C[n+]1ccc(-c2nc3ccccc3s2)cc1 [BTP^+·BF4^−, 4-(benzo[d]thiazol-2-yl)-1-methylpyridin-1-ium tetrafluoroborate]",0.26,0.26,260,,,,,,,,"solubility ([1]; 0.5 M TBABF4 in MeCN, maximum solubility in electrolyte solution, 0.5 M TBABF4/MeCN): 0.087 M; Solubility (M) 0.5M TBAPF6/MeCN ([1]; electrolyte solution, head prints 0.5M TBAPF6/MeCN): 0.087 M"
"Cn1c(-c2cc[n+](C)cc2)nc2ccccc21 [BIP^+·BF4^−, 1-methyl-4-(1-methyl-1H-benzo[d]imidazol-2-yl)pyridin-1-ium tetrafluoroborate]",,,,99 (99) mV,0.73,99 (99) mV,0.71,−1.41 V vs. Fc/Fc^+,,,
"c1ccc2sc(-c3cc[n+](CCCCC[n+]4ccc(-c5nc6ccccc6s5)cc4)cc3)nc2c1 [Di-BTP^2+·2PF6^−, 1,1′-(pentane-1,5-diyl)bis(4-(benzo[d]thiazol-2-yl)pyridin-1-ium) hexafluorophosphate]",,,,,,,,,,0.1,

# Reference: patent US12643893B2, “Heteroaryl-pyridinium compound and redox flow battery comprising the same” (Korea Advanced Institute of Science and Technology, priority 2021, dated 2026)
